Data set [1] can be described thus: Serum corticosterone in rats. The following applies: progesterone, CDB-4124 and RU-486 groups compared.
The test system of data set [2] is progesterone-induced endometrial proliferation in the rabbit uterus. The experiment in a line: anti-McGinty and anti-Clauberg assays (biological activity in the rabbit uterus). It is filed as in vivo. The following applies: in comparison to RU 486 and CDB-2914. An excerpt: Also given in Table 1 are the relative biological activities of the same compounds in the rabbit uterus by the anti-McGinty and anti-Clauberg assays. Compound CDB-2914 (listed at the end of the Table) was used as the control or reference compound (rabbit Biological Activity=1.00) for these experiments because results of experiments using CDB-2914 have been published before (Hild-Petito et al., 1996; Passaro et al., 1997; Reel et al., 1998; Lamer et al., 2000). For the anti-McGinty test, immature female rabbits received a subcutaneous injection of 5 μg estradiol in 10% ethanol/sesame oil daily for 6 consecutive days. On day 7, animals underwent sterile abdominal surgery to ligate a 3-4 cm segment of both uterine horns. The test compound in appropriate solvent was injected intraluminally into the ligated segment of one uterine horn and vehicle alone into the other. […] Five micron sections stained with hematoxylin and cosin were evaluated microscopically for the degree of endometrial glandular proliferation. The percent inhibition of endometrial proliferation for each rabbit was calculated and the mean of the group of five animals recorded. […] Five micron sections stained with hematoxylin and eosin were evaluated microscopically for the degree of endometrial glandular proliferation. […]

The test system of a further data set is endometrium. The experiment in a line: Endometrial biopsies of women in the CDB-4124 treatment groups. The class given is in vivo, human. How it is done: Endometrial biopsies were taken from 27 women exposed to 12.5 mg, 25 mg or 50 mg CDB-4124 for six months and 31 women with uterine fibroids exposed to 12.5 or 25 mg CDB-4124 for three months. Specimens were evaluated in a treatment blinded fashion utilizing the WHO diagnostic schema (Silverberg et al., tumors of the uterine corpus: epithelial tumors and related lesions. Tavassoli F A, Stratton M R, reditors. WHO Classification of Tumors: Pathology and Genetics of Tumors of the Breast and Female Genital Organs. Lyon, France: IARC Press, 2003: 221-232). A consensus primary end point result was determined for each specimen by majority (two or more of three pathologists agree), or in the event of all pathologists disagreeing the “worst” diagnosis of the three was assigned. Additional findings were recorded using a structured data collection instrument. All raw data was provided to the reviewing pathologists, who undertook an independent analysis that was the basis for their conclusions.

Data set [3] deals with pre-menopausal adult women diagnosed with endometriosis. As to the kind of experiment: Six month study of Proellex (CDB-4124) in the treatment of endometriosis. The class given is in vivo, human. The following applies: for change in endometrial thickness from baseline (ultrasound): statistically insignificant.
For data set [4] the test system is unchanged. The data set is described as above. The class given is in vivo, human. How it is done:
Pain reduction also occurred more rapidly than with the active control, Lucrin®. The response of pain to treatment in this study was analyzed in two ways. Patients in the study maintained daily pain diaries to record the severity and frequency of pain. In addition, at each office visit, patients filled out endometriosis symptom surveys that included a questionnaire that evaluated intensity of pain on a bad day on a scale of 0-10 with 10 being the greatest intensity. […] There appeared to be a dose dependent effect on pain reduction. […] This decrease in duration of pain was statistically better (p=0.0012) than the 117.8 (74%; standard deviation 51.4 days) pain free days achieved with Lucrin®. […] Patients on CDB-4124 12.5 mg and 25 mg doses had 115.9 (66%; standard deviation 69.2 days) and 133.6 (75%; standard deviation 27.4 days) pain free days, respectively. […] The 25 mg and 12.5 mg doses of CDB-4124 were not statistically different from Lucrin®. […] The intensity of pain was assessed by the question: “On a […], with 0 being no pain and 10 being extreme pain, how intense was your pain on a bad day?” The mean scores for intensity of pain at baseline were 6.3 for the CDB-4124 groups and 6.1 for the Lucrin® group. […] At month three all four active treatment groups had statistically significant reduction in pain compared with baseline, with the following scores: 3.7 (p=0.03) for 12.5 mg CDB-4124, 3.2 (p=0.03) for 25 mg CDB-4124, 1.6 (p=0.015) for 50 mg CDB-4124 and 1.5 (p=0.016) for Lucrin®. These dose related reductions continued until month six when the values for pain intensity were 2.0 (p=0.008), 2.8 (p=0.023), 0.6 (p=0.004) and 0.7 (p=0.016), respectively. Two months after stopping treatment pain returned and was of similar intensity in all four treatment groups.

The subject of data set [5] is women with uterine fibroids. The experiment in a line: Three month study in women with uterine fibroids. It is filed as in vivo, human. The conditions noted are these: 12.5 mg or 25 mg daily for three months, begun at day 5 of cycle. How it is done: In a separate study, women with uterine fibroids were administered daily doses of 12.5 mg, 25 mg or 50 mg CDB-4124 for a three month period, beginning at day 5 of each woman's menstrual cycle.

The subject of data set [6] is females suffering from endometriosis. The experiment in a line: Example 12: 12.5 mg CDB-4124 beginning at day 5 versus day 15 of the menstrual cycle. The class given is in vivo, human. The following applies: 12.5 mg for a six-month period. How it is done:
Females suffering from endometriosis are divided into two groups: a first group receives 12.5 mg of CDB-4124 for a six-month period beginning at day 5 of each female's menstrual cycle; a second group receives 12.5 mg of CDB-4124 for a six-month period beginning at day 15 of each female's menstrual cycle. Endometrial thickness is monitored regularly throughout the six-month period.

The structures appear in SMILES notation.

Regarding `COCC(=O)[C@@]1(OC(C)=O)CC[C@H]2[C@@H]3CCC4=CC(=O)CCC4=C3[C@@H](c3ccc(N(C)C)cc3)C[C@@]21C` [CDB-4124, 21-methoxy-17α-acetoxy-11β-(4 N,N-dimethylaminophenyl)-19-norpregna-4,9-diene-3,20-dione], in data set [1], the “differences in serum corticosterone between treatment groups” value is given as “No differences”. Also, in data set [2], the “antiprogestin activity in the rabbit uterus” value is listed as “strong”. Also, the “consensus primary diagnosis of endometrial biopsy (WHO schema)” value with endometrium (12.5, 25 or 50 mg for six months, 12.5 or 25 mg for three months) is “benign endometrium”. For the same compound, in the data set with endometrium (endometrial biopsies), the “blood vessel wall thickening and latticed capillary patterns” value is on record as “did not induce”. Moreover, the “most prominent secondary finding within the benign category” value with endometrium (endometrial biopsies, more prominent at lowest doses) is reported as “cystic dilation of glands”. In the data set on endometrium (every concentration tested (12.5, 25, 50 mg)), the endometrial proliferation result is listed as “suppressed”. In addition, the “increase in endometrial thickness from baseline (ultrasound)” value in data set [3] (12.5 mg dose, after six months, begun at day 5 of cycle, statistically significant (p 0.016)) is given as 10.9 mm. For the same compound, the “change in endometrial thickness from baseline (ultrasound)” value in data set [3] (25 mg dose, after six months, begun at day 5 of cycle) was 9.8 mm; in data set [3] (50 mg dose, after six months, begun at day 5 of cycle), 3.9 mm. Further, the “biomarkers of bone resorption” value in data set [3] (any of the dose arms of CDB-4124, three and six months of treatment) is “no significant changes”. Also, the “intensity of pain on a bad day (score)” value is reported as 2.0 in data set [4] (month six, 12.5 mg CDB-4124, scale 0-10, p=0.008); 2.8 in data set [4] (month six, 25 mg CDB-4124, scale 0-10, p=0.023); 0.6 in data set [4] (month six, 50 mg CDB-4124, scale 0-10, p=0.004); 3.7 in data set [4] (month three, 12.5 mg CDB-4124, scale 0-10, baseline 6.3, p=0.03); 3.2 in data set [4] (month three, 25 mg CDB-4124, scale 0-10, baseline 6.3, p=0.03); 1.6 in data set [4] (month three, 50 mg CDB-4124, scale 0-10, baseline 6.3, p=0.015). Moreover, the mean endometrial thickness result in data set [5] is on record as “less than 20 mm”. Also, the “subjects with a significant bleeding episode” value in data set [5] was “None”. Besides, the “endometrial thickening, group begun at day 15 versus group begun at day 5” value in data set [6] was “lesser degree of endometrial thickening”.

The record behind these values is patent US8426394B2, “Progesterone antagonists such as CDB-4124 in the treatment of endometriosis, uterine fibroids, dysmenorrhea, breast cancer, etc” (Repros Therapeutics Inc., priority 2008, dated 2013).
